“And” between values parts separate entries of the source, which are not always exact repeats. Identical values can stand only once. “Also recorded” adds a separate entry of the source.
Tests used:
r(CUG)exp–MBNL1 complex = test: Live-cell NanoBRET assay in HeLa480 cells; assay type: cell-based; details: HeLa480 cells; for IC50: compound 16 h; for reduction of NanoBRET signal, dose response: up to 50 μM
Procedure: To optimize the assay, HeLa480 cells were cotransfected with plasmids encoding MBNL1 fused to HaloTag and NanoLuc in various donor to acceptor DNA ratios in a 6-well plate using 8 μL of FuGENE HD Transfection Reagent (Promega, catalog #E2311) in 110 μL of Opti-MEM (Giboco, catalog #31985070), following the manufacturer’s protocol. The transfection mix was incubated for 10 min at room temperature before being added to the cells. After incubating the cells for 20 h, they were trypsinized from the surface, resuspended in an appropriate volume of assay medium (Opti-MEM + 4% (v/v) FBS), and counted using trypan blue (Corning, catalog #25-900-CI) and the Countess 3 Automated Cell Counter (Invitrogen, catalog #AMQAX2000) to determine cell viability and total cell number. The cell suspension was then diluted to the desired concentration and reseeded into white 96-well tissue culture plates (Corning, catalog #3903) where 100 μL of growth medium containing 200 nM HaloTag NanoBRET 618 Ligand (Promega, catalog #N1662) was added to each well, delivering 1.6 × 10^4 transfected cells (affording ∼70% confluency). [Note: in each experiment, cells were delivered only in 100 μL of growth medium to three wells as no HaloTag ligand controls.] The cells were then incubated overnight at 37 °C with 5% CO2 to facilitate specific binding to the HaloTag fusion protein.
The following day, NanoLuc substrate and 20 μM extracellular NanoLuc inhibitor were added to the wells. For a 96-well plate, 2.5 mL of Opti-MEM were mixed with 25 μL of NanoLuc substrate (Promega, catalog #N1662) and 8.3 μL of extracellular NanoLuc inhibitor (Promega, catalog #N2160). Then, 25 μL of this mixture was added to each well, resulting in final concentrations of 1× NanoLuc substrate and 20 μM extracellular NanoLuc inhibitor in the assay medium and mixed at room temperature. The interaction between MBNL1 and r(CUG)480 was measured by detecting the BRET signal using the GloMax Discover System (Promega, catalog #GM3000). Dual-filtered luminescence was collected with a 460/80 nm bandpass filter for the donor (NanoLuc protein) and a 610 nm long-pass filter for the acceptor (HaloTag ligand) using an integration time of 500 ms. The corrected NanoBRET ratio, expressed in milliBRET units (mBU), was calculated using eq : 1 Corrected NanoBRET Ratio=HaloTag ligand(Emission610nm/LP)/Donor Luminescence(Emission450nm/BP80nm)−No Ligand Control(Emission610nm/LP)/Donor Luminescence(Emission450nm/BP80nm)
NanoBRET inhibition rate was calculated using eq : 2 Inhibitionrate=RatioDMSO−Ratiosample/RatioDMSO−RatioWT×100% In all subsequent assays, a ratio of […] MBNL1–HaloTag:MBNL1–NanoLuc plasmids (2.5 μg HaloTag and 50 ng NanoLuc) was used as described.
The CAG25 Vivo-Morpholino was added directly to the cell culture medium (without the need for a transfection reagent) at the recommended final concentration of 10 μM, according to the manufacturer’s guidelines. It was dissolved in RNase-free water and stored at room temperature before use. The Vivo-Morpholino was added 4 h after the cells had been reseeded into the 96-well plate. Cells were then incubated with the Vivo-Morpholino for 16 h before NanoBRET signal detection.
Plasmids encoding MBNL1 fusion proteins were first transfected into HeLa480 cells cultured in 6-well plates (∼80% confluency; as described in “NanoBRET Assay: Determining the Optimal Placement of the Fusion (N- or C-Terminus) and Plasmid Ratios”). Approximately 24 h later, the transfected cells were reseeded into 96-well plates (Corning, catalog #3903) at a density of 1.6 × 10^4 cells per well in 90 μL of growth medium, affording an approximate confluency of ∼70%. The cells were incubated at 37 °C for 4 h to allow adherence to the plate. […]

[1] = tested on: FAM-r(CUG)10-BHQ (RNA, repeat) CCGCUGCUGCUGCUGCUGCUGCUGCUGCUGCUGCGG; test: differential scanning fluorimetry (FAM-BHQ); details: Na+ (20 mM sodium phosphate), pH 7.4, 500 nM RNA
[2] = tested on: RNA harboring two 1 × 1 nucleotide UU internal loops present in r(CUG)exp; test: 1D imino proton NMR binding to r(CUG) repeat RNA; details: for binding to the 1×1 nucleotide UU internal loop (1D imino proton spectra): 100 µM compound; for binding class by imino proton NMR: 50 μM RNA, 100 μM compound, pH 6.0, 50 mM NaCl
Procedure: NMR spectra were recorded on a 700 MHz Bruker Avance III spectrometer equipped with a cryogenic probe. RNAs (r(GACC-UGCU-GGU-GAAA-ACC-UGC-UGG-UC) where the underlined Us indicate the internal loop nucleotides and bold indicate a GNRA hairpin) and (r(GACC-AGCU-GGU-GAAA-ACCA-GCU-GGUC) where UU internal loops were replaced with AU base pairs) were purchased from Dharmacon, HPLC purified, deprotected and desalted. The RNA (50 μM) was dissolved in NMR Buffer (5 mM KH2PO4/K2HPO4, 0.25 mM EDTA, pH 6.0) or NMR Buffer supplemented with 50 mM NaCl and reannealed by heating to 95 °C for 3 min, and then slowly cooling the sample to room temperature before adding to Shigemi NMR tubes (Shigemi, Inc.).
1D ^1H NMR spectra of exchangeable (imino) protons were acquired in 5% D2O and 95% H2O at 9 °C using 50 μM of RNA in the absence of compound. Compounds were then dissolved in D6-DMSO and added to the RNA sample to achieve a final concentration of 100 μM (1:2 RNA:compound). The chemical shifts were referenced to the residual solvent peaks of D6-DMSO, which served as the internal calibration standard. NMR spectra were processed in Topspin 4.0.6.

MBNL1 protein expression = MBNL1 protein expression by Western blot in DM1 patient-derived myotubes; assay type: cell-based, human; details: 50 μM
[3] = tested on: r(CUG)2, NMR construct with two 1 × 1 UU internal loops (RNA, repeat) GACCUGCUGGUGAAAACCUGCUGGUC; test: 1D 1H imino NMR; details: 50 mM NaCl; 5 mM potassium phosphate pH 6.0, 9 °C; 50 μM RNA, 100 μM compound
[4] = no measurable shift at 100 μM compound

Question: With COc1ccc(CCNC(=O)c2cc3c(N4CCCC4)nc(C)cn3n2)cc1OC [A6] as the molecule, how does the IC50 (r(CUG)exp–MBNL1 complex) read?
Answer: 27 ± 3 µM

Question: What about the ΔTm ([1]; compound concentration of the shift not given) of the same molecule?
Answer: 1.2 °C

Question: What about the “binding to the 1×1 nucleotide UU internal loop (1D imino proton spectra)” value (“binding … (1D imino proton spectra)” below) [2] of the same molecule?
Answer: binds

Question: And the “effect on MBNL1 protein expression levels” value (“effect” for short) (MBNL1 protein expression)?
Answer: without affecting

Question: And the binding [3]?
Answer: yes

Question: How did the IC50 (r(CUG)exp–MBNL1 complex) turn out when Cc1ccc(CNC(=O)c2cc3c(N4CCSCC4)nc(C)cn3n2)cc1 [B1] was run?
Answer: 37 ± 12 µM

Question: And the “reduction of NanoBRET signal, dose response” value (r(CUG)exp–MBNL1 complex)?
Answer: active

Question: What about the binding [1, 4] of the same molecule?
Answer: no

Question: And the “binding class by imino proton NMR” value [2]?
Answer: very weak binding

Question: What about the “binding … (1D imino proton spectra)” value [2] of the same molecule?
Answer: binds

Question: And the “effect” value (MBNL1 protein expression)?
Answer: without affecting

Question: What about the binding [3] of the same molecule?
Answer: weak

Question: Cc1ccc(CCNC(=O)c2cc3c(N4CCSCC4)nc(C)cn3n2)cc1 [B4] was tested. Which IC50 (r(CUG)exp–MBNL1 complex) did it give?
Answer: 22 µM and 20 µM

Question: And the binding ([1]; dose-dependent shift)?
Answer: yes

Question: And the “binding class by imino proton NMR” value [2]?
Answer: moderate binding

Question: And the “binding … (1D imino proton spectra)” value [2]?
Answer: binds

Question: And the binding [3]?
Answer: yes

Question: Which results are given for COc1ccccc1CNC(=O)c1cc2c(N3CCSCC3)nc(C)cn2n1 [B2]?
Answer: IC50 (r(CUG)exp–MBNL1 complex): > 50 µM; reduction of NanoBRET signal, dose response (r(CUG)exp–MBNL1 complex): activity only at the highest dose; binding [1, 4]: no; binding class by imino proton NMR [2]: very weak binding; binding to the 1×1 nucleotide UU internal loop (1D imino proton spectra) [2]: binds; effect on MBNL1 protein expression levels (MBNL1 protein expression): without affecting; binding [3]: weak

Question: Which results are given for COc1ccc(CNC(=O)c2cc3c(N4CCSCC4)nc(C)cn3n2)cc1 [B3]?
Answer: IC50 (r(CUG)exp–MBNL1 complex): 35 ± 12 µM; binding ([1]; dose-dependent shift): yes; binding class by imino proton NMR [2]: moderate binding; binding to the 1×1 nucleotide UU internal loop (1D imino proton spectra) [2]: binds; effect on MBNL1 protein expression levels (MBNL1 protein expression): without affecting; binding [3]: yes

Question: Cc1ccc(CNC(=O)c2cc3c(N4CCCC4)nc(C)cn3n2)cc1 [A1] was tested. Which IC50 (r(CUG)exp–MBNL1 complex) did it give?
Answer: > 50 µM

Question: What about the “reduction of NanoBRET signal, dose response” value (r(CUG)exp–MBNL1 complex) of the same molecule?
Answer: activity only observed at the highest dose; also recorded: weak activity

Question: What about the binding ([1]; dose-dependent shift) of the same molecule?
Answer: yes

Question: What about the “binding … (1D imino proton spectra)” value [2] of the same molecule?
Answer: binds

Question: And the binding [3]?
Answer: yes

Question: What does the source list for CCc1ccc(CNC(=O)c2cc3c(N4CCCC4)nc(C)cn3n2)cc1 [A2]?
Answer: IC50 (r(CUG)exp–MBNL1 complex): 22 ± 6 µM; binding ([1]; dose-dependent shift): yes; binding to the 1×1 nucleotide UU internal loop (1D imino proton spectra) [2]: binds; effect on MBNL1 protein expression levels (MBNL1 protein expression): without affecting; binding [3]: yes

Question: Which binding ([1]; dose-dependent shift) does the source give for Cc1cn2nc(C(=O)NCCc3ccccc3)cc2c(N2CCCC2)n1 [A5] here?
Answer: yes

Question: What about the “binding … (1D imino proton spectra)” value [2] of the same molecule?
Answer: binds

Question: What about the binding [3] of the same molecule?
Answer: yes

Question: For Cc1cn2nc(C(=O)NCc3ccc(Cl)cc3)cc2c(N2CCCC2)n1 [A3], which IC50 (r(CUG)exp–MBNL1 complex) is on record?
Answer: 23 ± 5 µM

Question: What about the binding ([1]; dose-dependent shift) of the same molecule?
Answer: yes

Question: And the “binding … (1D imino proton spectra)” value [2]?
Answer: binds

Question: And the binding [3]?
Answer: yes

Question: How did the IC50 (r(CUG)exp–MBNL1 complex) turn out when Cc1cn2nc(C(=O)NCc3ccc(C(F)(F)F)cc3)cc2c(N2CCCC2)n1 [A4] was run?
Answer: 39 ± 6 µM

Question: And the binding ([1]; dose-dependent shift)?
Answer: yes

Question: And the “binding … (1D imino proton spectra)” value [2]?
Answer: binds

Question: What about the “effect” value (MBNL1 protein expression) of the same molecule?
Answer: without affecting

Question: And the binding [3]?
Answer: yes

Source: article PMC12670313 (ACS Central Science, 2025)
